Experimental data taken from paper PMC3076939 (Biochemistry, 2011).

Legend:
[1] = system: C-terminal processing of PHI(1–27); type: biochemical, mouse; settings: PHI(1–27) with membrane lysate 1 mg/mL in PBS, 37 °C, 15 min, LC-MS; o-phenanthroline 1 mM, phosphoamidon 10 µM
DPP4 = DPP4 (Mus musculus, UniProt P28843); type: biochemical
plasma = settings: cited from earlier work
human plasma = settings: cited from earlier work

Chain of DPP4 (P28843 whole entry): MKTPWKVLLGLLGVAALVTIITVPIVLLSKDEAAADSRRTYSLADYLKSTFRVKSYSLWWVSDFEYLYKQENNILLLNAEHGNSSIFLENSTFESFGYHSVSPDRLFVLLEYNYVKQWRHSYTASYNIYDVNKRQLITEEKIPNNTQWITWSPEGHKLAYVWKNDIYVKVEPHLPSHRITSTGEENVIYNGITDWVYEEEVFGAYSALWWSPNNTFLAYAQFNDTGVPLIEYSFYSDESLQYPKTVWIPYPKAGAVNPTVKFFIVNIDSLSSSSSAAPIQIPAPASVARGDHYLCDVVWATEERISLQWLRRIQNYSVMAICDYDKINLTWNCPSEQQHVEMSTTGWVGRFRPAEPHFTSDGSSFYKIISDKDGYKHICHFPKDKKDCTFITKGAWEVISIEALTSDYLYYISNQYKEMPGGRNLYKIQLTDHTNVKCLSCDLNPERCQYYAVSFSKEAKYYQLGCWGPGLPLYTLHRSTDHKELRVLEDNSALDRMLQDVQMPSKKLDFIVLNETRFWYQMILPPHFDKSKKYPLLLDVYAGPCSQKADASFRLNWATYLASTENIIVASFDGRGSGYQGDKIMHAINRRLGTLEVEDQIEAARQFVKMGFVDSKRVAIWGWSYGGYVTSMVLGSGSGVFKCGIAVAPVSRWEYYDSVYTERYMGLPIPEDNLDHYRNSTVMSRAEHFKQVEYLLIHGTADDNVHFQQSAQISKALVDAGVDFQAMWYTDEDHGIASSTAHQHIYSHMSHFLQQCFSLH

Molecule | effect on C-terminal processing of PHI(1–27) (PHI(1–22) production) [1] | other results
c1cnc2c(c1)ccc1cccnc12 [1,10-phenanthroline] | reducing the production of PHI(1–22) | 
CNC(=O)[C@H](Cc1c[nH]c2ccccc12)NC(=O)[C@@H](CC(=O)NO)CC(C)C [GM6001] | no impact | 
O=S(=O)(F)Cc1ccccc1 [PMSF, phenylmethylsulfonyl fluoride] |  | inhibition of the production of PHI(3–27) (N-terminal processing) (DPP4): strongly inhibited the production of PHI(3–27)
CC(C)C[C@H](NP(=O)(O)O[C@@H]1O[C@@H](C)[C@H](O)[C@@H](O)[C@H]1O)C(=O)N[C@@H](Cc1c[nH]c2ccccc12)C(=O)O [phosphoramidon] | no impact | 
HAEGTFTSDVSSYLEGQAAKEFIAWLVKGRG-CONH2 |  | fragment found (plasma): GLP-1(9–36), major; fragment found (human plasma): GLP-1(9–36)
